Source: patent publication US9469650B2, “Melampomagnolide B derivatives” (BOARD OF TRUSTEES OF THE UNIVERSITY OF ARKANSAS, priority 2013, dated 2016)

What was measured:
MOLT-4 = test: panel of 60 human tumor cell lines, growth inhibition (Leukemia)
SR = test: as above
SF-268 = test: panel of 60 human tumor cell lines, growth inhibition (CNS Cancer)
SNB-19 = test: as above
SNB-75 = test: as above
HCC-2998 = test: panel of 60 human tumor cell lines, growth inhibition (Colon Cancer); conditions: for Percent Growth: HCC-2998
HCT-116 = test: as above; conditions: for Percent Growth: HCT-116
SW-620 = test: as above; conditions: for Percent Growth: SW-620
786-0 = test: panel of 60 human tumor cell lines, growth inhibition (Renal Cancer)
A498 = test: as above
CAKI-1 = test: as above
TK-10 = test: as above; conditions: for Percent Growth: TK-10
UO-31 = test: as above
MCF7 = test: panel of 60 human tumor cell lines, growth inhibition (Breast Cancer); conditions: for Percent Growth: MCF7
HS 578T = test: as above; conditions: for Percent Growth: HS 578T
T-47D = test: as above; conditions: for Percent Growth: T-47D
MDA-MB-468 = test: as above
IGROV1 = test: panel of 60 human tumor cell lines, growth inhibition (Ovarian Cancer); conditions: for Percent Growth: IGROVI
NCI/ADR-RES = test: as above

C=C1C(=O)O[C@H]2[C@H]1CC/C(COC(=O)CCC(=O)NCc1ccc(Cl)nc1)=C\CC[C@@]1(C)O[C@@H]21 [JVM 96]
GI50 (MOLT-4; Homo sapiens, MOLT-4): 6.22 µM
CC50 (MOLT-4; Homo sapiens, MOLT-4, read-out: LC50): > 100 µM
IC (TGI) (MOLT-4; Homo sapiens, MOLT-4, read-out: TGI): 38.2 µM
Percent Growth (MOLT-4; MOLT-4, Log10 Concentration −4.0): −25%
Percent Growth (MOLT-4; MOLT-4, Log10 Concentration −5.0): 34%
Percent Growth (MOLT-4; MOLT-4, Log10 Concentration −6.0): 110%
Percent Growth (MOLT-4; MOLT-4, Log10 Concentration −7.0): 105%
Percent Growth (MOLT-4; MOLT-4, Log10 Concentration −8.0): 97%
GI50 (SR; Homo sapiens): 2.59 µM
CC50 (SR; Homo sapiens, read-out: LC50): > 100 µM
IC (TGI) (SR; Homo sapiens, read-out: TGI): 18 µM
Percent Growth (SR; Log10 Concentration −4.0): −35%
Percent Growth (SR; Log10 Concentration −5.0): 12%
Percent Growth (SR; Log10 Concentration −6.0): 77%
Percent Growth (SR; Log10 Concentration −7.0): 90%
Percent Growth (SR; Log10 Concentration −8.0): 84%
GI50 (SF-268; Homo sapiens, SF-268): 10.5 µM
CC50 (SF-268; Homo sapiens, SF-268, read-out: LC50): 67.6 µM
IC (TGI) (SF-268; Homo sapiens, SF-268, read-out: TGI): 26.7 µM
Percent Growth (SF-268; SF-268, Log10 Concentration −4.0): −71%
Percent Growth (SF-268; SF-268, Log10 Concentration −5.0): 52%
Percent Growth (SF-268; SF-268, Log10 Concentration −6.0): 97%
Percent Growth (SF-268; SF-268, Log10 Concentration −7.0): 98%
Percent Growth (SF-268; SF-268, Log10 Concentration −8.0): 97%
GI50 (SNB-19; Homo sapiens, SNB-19): 15.6 µM
CC50 (SNB-19; Homo sapiens, SNB-19, read-out: LC50): > 100 µM
IC (TGI) (SNB-19; Homo sapiens, SNB-19, read-out: TGI): 42.3 µM
Percent Growth (SNB-19; SNB-19, Log10 Concentration −4.0): −43%
Percent Growth (SNB-19; SNB-19, Log10 Concentration −5.0): 72%
Percent Growth (SNB-19; SNB-19, Log10 Concentration −6.0): 88%
Percent Growth (SNB-19; SNB-19, Log10 Concentration −7.0): 96%
Percent Growth (SNB-19; SNB-19, Log10 Concentration −8.0): 93%
GI50 (SNB-75; Homo sapiens, SNB-75): 4.59 µM
CC50 (SNB-75; Homo sapiens, SNB-75, read-out: LC50): 47 µM
IC (TGI) (SNB-75; Homo sapiens, SNB-75, read-out: TGI): 20.1 µM
Percent Growth (SNB-75; SNB-75, Log10 Concentration −4.0): −94%
Percent Growth (SNB-75; SNB-75, Log10 Concentration −5.0): 41%
Percent Growth (SNB-75; SNB-75, Log10 Concentration −6.0): 68%
Percent Growth (SNB-75; SNB-75, Log10 Concentration −7.0): 69%
Percent Growth (SNB-75; SNB-75, Log10 Concentration −8.0): 80%
Percent Growth (HCC-2998; Log10 Concentration −4.0): −90%
Percent Growth (HCC-2998; Log10 Concentration −5.0): 76%
Percent Growth (HCC-2998; Log10 Concentration −6.0): 108%
Percent Growth (HCC-2998; Log10 Concentration −7.0): 101%
Percent Growth (HCC-2998; Log10 Concentration −8.0): 99%
GI50 (HCC-2998; Homo sapiens, HCC 2998): 14.4 µM
CC50 (HCC-2998; Homo sapiens, HCC 2998, read-out: LC50): 57.3 µM
IC (TGI) (HCC-2998; Homo sapiens, HCC 2998, read-out: TGI): 28.7 µM
Percent Growth (HCT-116; Log10 Concentration −4.0): −100%
Percent Growth (HCT-116; Log10 Concentration −5.0): 13%
Percent Growth (HCT-116; Log10 Concentration −6.0): 97%
Percent Growth (HCT-116; Log10 Concentration −7.0): 93%
Percent Growth (HCT-116; Log10 Concentration −8.0): 97%
GI50 (HCT-116; Homo sapiens, HCT-116, HCT-116): 3.62 µM
CC50 (HCT-116; Homo sapiens, HCT-116, read-out: LC50): 36.2 µM
IC (TGI) (HCT-116; Homo sapiens, HCT-116, read-out: TGI): 13.1 µM
GI50 (SW-620; Homo sapiens, SW-620, SW-620): 4.35 µM
CC50 (SW-620; Homo sapiens, SW-620, read-out: LC50): 64.9 µM
IC (TGI) (SW-620; Homo sapiens, SW-620, read-out: TGI): 17.8 µM
Percent Growth (SW-620; Log10 Concentration −4.0): −67%
Percent Growth (SW-620; Log10 Concentration −5.0): 22%
Percent Growth (SW-620; Log10 Concentration −6.0): 99%
Percent Growth (SW-620; Log10 Concentration −7.0): 99%
Percent Growth (SW-620; Log10 Concentration −8.0): 99%
Percent Growth (786-0; 786-0, Log10 Concentration −4.0): −91%
Percent Growth (786-0; 786-0, Log10 Concentration −5.0): 26%
Percent Growth (786-0; 786-0, Log10 Concentration −6.0): 94%
Percent Growth (786-0; 786-0, Log10 Concentration −7.0): 92%
Percent Growth (786-0; 786-0, Log10 Concentration −8.0): 94%
GI50 (786-0; Homo sapiens, 786-0): 4.43 µM
CC50 (786-0; Homo sapiens, 786-0, read-out: LC50): 44.4 µM
IC (TGI) (786-0; Homo sapiens, 786-0, read-out: TGI): 16.6 µM
Percent Growth (A498; A498, Log10 Concentration −4.0): −95%
Percent Growth (A498; A498, Log10 Concentration −5.0): 74%
Percent Growth (A498; A498, Log10 Concentration −6.0): 95%
Percent Growth (A498; A498, Log10 Concentration −7.0): 107%
Percent Growth (A498; A498, Log10 Concentration −8.0): 96%
GI50 (A498; Homo sapiens, A498): 13.9 µM
CC50 (A498; Homo sapiens, A498, read-out: LC50): 54.2 µM
IC (TGI) (A498; Homo sapiens, A498, read-out: TGI): 27.5 µM
Percent Growth (CAKI-1; CAKI-1, Log10 Concentration −4.0): −93%
Percent Growth (CAKI-1; CAKI-1, Log10 Concentration −5.0): 41%
Percent Growth (CAKI-1; CAKI-1, Log10 Concentration −6.0): 87%
Percent Growth (CAKI-1; CAKI-1, Log10 Concentration −7.0): 85%
Percent Growth (CAKI-1; CAKI-1, Log10 Concentration −8.0): 93%
GI50 (CAKI-1; Homo sapiens, CAKI-1): 6.37 µM
CC50 (CAKI-1; Homo sapiens, CAKI-1, read-out: LC50): 47.9 µM
IC (TGI) (CAKI-1; Homo sapiens, CAKI-1, read-out: TGI): 20.3 µM
GI50 (TK-10; Homo sapiens, TK-10, TK-10): 3.83 µM
CC50 (TK-10; Homo sapiens, TK-10, read-out: LC50): 37.9 to 50 µM
IC (TGI) (TK-10; Homo sapiens, TK-10, read-out: TGI): 13.5 µM
Percent Growth (TK-10; Log10 Concentration −4.0): −99%
Percent Growth (TK-10; Log10 Concentration −5.0): 15%
Percent Growth (TK-10; Log10 Concentration −6.0): 99%
Percent Growth (TK-10; Log10 Concentration −7.0): 103%
Percent Growth (TK-10; Log10 Concentration −8.0): 102%
GI50 (UO-31; Homo sapiens, UO-31): 10.2 µM
CC50 (UO-31; Homo sapiens, UO-31, read-out: LC50): 53.7 µM
IC (TGI) (UO-31; Homo sapiens, UO-31, read-out: TGI): 23.4 µM
Percent Growth (UO-31; UO-31, Log10 Concentration −4.0): −87%
Percent Growth (UO-31; UO-31, Log10 Concentration −5.0): 51%
Percent Growth (UO-31; UO-31, Log10 Concentration −6.0): 92%
Percent Growth (UO-31; UO-31, Log10 Concentration −7.0): 88%
Percent Growth (UO-31; UO-31, Log10 Concentration −8.0): 87%
GI50 (MCF7; Homo sapiens, MCF7, MCF7): 3.2 µM
CC50 (MCF7; Homo sapiens, MCF7, read-out: LC50): 58.9 µM
IC (TGI) (MCF7; Homo sapiens, MCF7, read-out: TGI): 13.6 µM
Percent Growth (MCF7; Log10 Concentration −4.0): −68%
Percent Growth (MCF7; Log10 Concentration −5.0): 10%
Percent Growth (MCF7; Log10 Concentration −6.0): 90%
Percent Growth (MCF7; Log10 Concentration −7.0): 89%
Percent Growth (MCF7; Log10 Concentration −8.0): 90%
Percent Growth (HS 578T; Log10 Concentration −4.0): −5%
Percent Growth (HS 578T; Log10 Concentration −5.0): 61%
Percent Growth (HS 578T; Log10 Concentration −6.0): 94%
Percent Growth (HS 578T; Log10 Concentration −7.0): 101%
Percent Growth (HS 578T; Log10 Concentration −8.0): 95%
GI50 (HS 578T; Homo sapiens, Hs-578T): 14.7 µM
CC50 (HS 578T; Homo sapiens, Hs-578T, read-out: LC50): > 100 µM
IC (TGI) (HS 578T; Homo sapiens, Hs-578T, read-out: TGI): 63.7 µM
GI50 (T-47D; Homo sapiens, T47D): 3.52 µM
CC50 (T-47D; Homo sapiens, T47D, read-out: LC50): 55.9 µM
IC (TGI) (T-47D; Homo sapiens, T47D, read-out: TGI): 14.4 µM
Percent Growth (T-47D; Log10 Concentration −4.0): −71%
Percent Growth (T-47D; Log10 Concentration −5.0): 13%
Percent Growth (T-47D; Log10 Concentration −6.0): 94%
Percent Growth (T-47D; Log10 Concentration −7.0): 100%
Percent Growth (T-47D; Log10 Concentration −8.0): 100%
GI50 (MDA-MB-468; Homo sapiens, MDA-MB-468): 1.54 µM
CC50 (MDA-MB-468; Homo sapiens, MDA-MB-468, read-out: LC50): 44.6 µM
IC (TGI) (MDA-MB-468; Homo sapiens, MDA-MB-468, read-out: TGI): 7.38 µM
Percent Growth (MDA-MB-468; MDA-MB-468, Log10 Concentration −4.0): −72%
Percent Growth (MDA-MB-468; MDA-MB-468, Log10 Concentration −5.0): −10%
Percent Growth (MDA-MB-468; MDA-MB-468, Log10 Concentration −6.0): 64%
Percent Growth (MDA-MB-468; MDA-MB-468, Log10 Concentration −7.0): 94%
Percent Growth (MDA-MB-468; MDA-MB-468, Log10 Concentration −8.0): 88%
GI50 (IGROV1; Homo sapiens, IGROV-1): 16.7 µM
CC50 (IGROV1; Homo sapiens, IGROV-1, read-out: LC50): 95.5 µM
IC (TGI) (IGROV1; Homo sapiens, IGROV-1, read-out: TGI): 39.9 µM
Percent Growth (IGROV1; Log10 Concentration −4.0): −53%
Percent Growth (IGROV1; Log10 Concentration −5.0): 79%
Percent Growth (IGROV1; Log10 Concentration −6.0): 107%
Percent Growth (IGROV1; Log10 Concentration −7.0): 106%
Percent Growth (IGROV1; Log10 Concentration −8.0): 107%
GI50 (NCI/ADR-RES; Homo sapiens): 31.1 µM
CC50 (NCI/ADR-RES; Homo sapiens, read-out: LC50): > 100 µM
IC (TGI) (NCI/ADR-RES; Homo sapiens, read-out: TGI): > 100 µM
Percent Growth (NCI/ADR-RES; Log10 Concentration −4.0): 6%
Percent Growth (NCI/ADR-RES; Log10 Concentration −5.0): 93%
Percent Growth (NCI/ADR-RES; Log10 Concentration −6.0): 107%
Percent Growth (NCI/ADR-RES; Log10 Concentration −7.0): 101%
Percent Growth (NCI/ADR-RES; Log10 Concentration −8.0): 101%
